These results are taken from patent publication US6590127B1, “Process for the preparation of pharmacologically active α-asarone from toxic β-asarone rich acorus calamus oil” (priority 2002, dated 2003).

SMILES strings stand for the structures.

A short description of series [1]: Toxicity of 2,4,5-trimethoxyphenylpropane compared with β-asarone.
Series [2] relates to mice fed with a high cholesterol diet. The conditions noted are these: oral dose of 80 mg/kg; cited from earlier work.
For the next series, the system named is mice. The conditions noted are these: cited from earlier work.
The test system of another series is rats. To be noted: cited from earlier work.
Another series deals with human lymphocytes. The conditions noted are these: human lymphocytes in-vitro after metabolic activation; cited from earlier work.
In a further series the test system is animals. To be noted: cited from earlier work.

On to `CCCc1cc(OC)c(OC)cc1OC` [2,4,5-trimethoxyphenylpropane, 1-propyl-2,4,5-trimethoxybenzene], for which the “toxicity relative to β-asarone” value in series [1] is “five times less toxic”.

As for `C/C=C/c1cc(OC)c(OC)cc1OC` [α-asarone, trans-2,4,5-trimethoxyphenyl-1-propene], in series [2], the decrease of cholesterol is 49.6%, the decrease of triglycerides is 83.7% and the “high density lipoprotein (HDL)-cholesterol” value is recorded as “increased”. Besides, the toxicity result in the series with mice was “no toxic effect is observed”. Besides, in the series with rats, the toxicity entry is recorded as “no toxic effect is observed”.

Consider `C/C=C\c1cc(OC)c(OC)cc1OC` [β-asarone], for which the chromosome damaging effect entry in the series on human lymphocytes is “chromosome damaging effect”. For the same molecule, the tumor induction result in the series on animals (after oral administration) is recorded as “induce tumors in the duodenal region”. Moreover, in the series with animals (animals), the carcinogenicity entry was “carcinogenic”.
